Results as given in patent publication EP1166781A1, “PROTEASOME INHIBITORS” (KYOWA HAKKO KOGYO CO., LTD., priority 1999, dated 2000).
Read-outs that look alike come from different tables or passages of the source.

How the values were obtained:
[1] = target: T1, proteasome (Homo sapiens, UniProt P28074); assay: Proteasome inhibitory activity (Suc-Leu-Leu-Val-Tyr-AMC cleavage, crude enzyme solution from HeLa S3 cell extract); assay type: biochemical
T1 construct: The obtained high molecular fraction (molecular weight >500K) was used as an enzyme solution for the detection of proteasome activity; endogenous in cells; host or cells: HeLa S3 cells: homogenate, 100,000G supernatant, >500K fraction from Centricon-500
Method: 1 x 10^9 of HeLa S3 cells were dispersed in 5 ml of the buffer A [20 mmol/L of Tris (pH 7.5), 2 mmol/L of ATP, 5 mmol/L of MgCl2, 1 mmol/L of dithiothreitol (DTT)], and then homogenized at 4°C. The supernatant centrifuged at 100,000G was concentrated by a Centricon-500 (supplied by Amicon) and diluted with 2.5 ml of the buffer B [25 mmol/L of Tris/HCl (pH 7.5), 2 mmol/L of ATP, 1 mmol/L of DTT, 20% of glycerol]. The obtained high molecular fraction (molecular weight >500K) was used as an enzyme solution for the detection of proteasome activity. Suc-Leu-Leu-Val-Tyr-AMC [Suc: Succinyl; AMC: Aminomethylcoumarin](supplied by Peptide Institute, Inc.) was used as a substrate for measuring inhibitory activity for proteasome (stored as a 2 mmol/L DMSO solution). The reaction was carried out by the following method using 96-well microtiter plates. To 96 µl of a reaction buffer [20 mmol/L of Tris/HCl (pH 8), 0.5 mmol/L of EDTA, 0.04% of sodium dodecylsulfate (SDS)] were added 1 µl of a drug solution (DMSO) and 2 µl of an enzyme solution followed by adding 1 µl of a substrate solution thereto, and then the mixture was incubated at 37°C for one hour. […]

[2] = system: Human colon cancer, WiDr cells; assay: Antiproliferative activity in WiDr cells (MTT, 72 hours); assay type: cell-based
Method: Human colon cancer, WiDr cells suspended in MEM media containing 10% of fetal calf serum were seeded in 96-well microtiter plates at 2 x 10^3cells/well, and precultured in an incubator with 5% of CO2 at 37°C for 24 hours. Then, each compound diluted appropriately with the media was added into the well at 50 µl/well. At this time, a final concentration of each compound is up to 100 µmol/l or 1 µmol/l. The cells were cultured in the incubator with 5% of CO2 at 37°C for additional 72 hours. At 5 hours before the culturing was terminated, MTT [3-(4,5-dimethylthiazol-2-yl)-2,5-[…] bromide] dissolved in the medium at a final concentration of 1 mg/mL was added into the well at 50 µl/well. After the culturing, dimethyl sulfoxide was added to the well at 150 µl/well, and the plate was vigorously stirred using a plate mixer to dissolve crystals of MTT-formazan completely. […]

[3] = crude proteasome fraction (>500K) from HeLa S3 cells, substrate Suc-Leu-Leu-Val-Tyr-AMC, 37°C for one hour, read-out: IC50
[4] = crude proteasome fraction (>500K) from HeLa S3 cells, substrate Suc-Leu-Leu-Val-Tyr-AMC, 37°C for one hour

SMILES	IC50 [1] [nM]	IC50 [2] [nM]	IC50 [1, 3] [nM]	IC50 [1, 4] [nM]
CCC(C)C1C(=O)OC1C(=O)NC1CC1CC(NC(=O)C(C)NC(=O)OC(C)(C)C)C(=O)OC (centres unmarked) [Compound 1]	50	790	–	–
CCC(C)C1C(=O)OC1C(=O)NC1CC1CC(NC(=O)C(C)N)C(=O)OC (centres unmarked) [Compound 2]	–	–	70	–
CCC(C)C1C(=O)OC1C(=O)NC1CC1CC(NC(=O)C(C)NC(=O)OC(C)(C)C)C(=O)OCc1ccccc1 (centres unmarked) [Compound 3]	–	37	15	–
CCC(C)C1C(=O)OC1C(=O)NC1CC1CC(NC(=O)C(C)NC(=O)OC(C)(C)C)C(=O)OCc1ccc2ccccc2c1 (centres unmarked) [Compound 5]	–	30	6.2	–
CCC(C)C1C(=O)OC1C(=O)NC1CC1CC(NC(=O)C(C)N)C(=O)OCc1ccc2ccccc2c1 (centres unmarked) [Compound 6]	–	40	38	–
CCC(C)C1C(=O)OC1C(=O)NC1CC1CC(NC(=O)C(C)NC(=O)OC(C)(C)C)C(=O)OCc1c2ccccc2cc2ccccc12 (centres unmarked) [Compound 7]	–	700	17	–
CCC(C)C1C(=O)OC1C(=O)NC1CC1CC(NC(=O)C(C)NC(=O)OC(C)(C)C)C(=O)OCc1cccc(F)c1 (centres unmarked) [Compound 8]	–	–	14	–
C=CCOC(=O)C(CC1CC1NC(=O)C1OC(=O)C1C(C)CC)NC(=O)C(C)NC(=O)OC(C)(C)C (centres unmarked) [Compound 9]	–	10	26	–
C=CCOC(=O)C(CC1CC1NC(=O)C1OC(=O)C1C(C)CC)NC(=O)C(C)N (centres unmarked) [Compound 10]	–	68	46	–
CCCCOC(=O)C(CC1CC1NC(=O)C1OC(=O)C1C(C)CC)NC(=O)C(C)NC(=O)OC(C)(C)C (centres unmarked) [Compound 11]	–	10	19	–
CCCCOC(=O)C(CC1CC1NC(=O)C1OC(=O)C1C(C)CC)NC(=O)C(C)N (centres unmarked) [Compound 12]	–	< 41	51	–
CCC(C)C1C(=O)OC1C(=O)NC1CC1CC(NC(=O)C(C)NC(=O)OC(C)(C)C)C(=O)OC(C)(C)C (centres unmarked) [Compound 13]	–	490	30	–
CCC(C)C1C(=O)OC1C(=O)NC1CC1CC(NC(=O)C(C)NC(=O)OC(C)(C)C)C(=O)OCC1CCCCC1 (centres unmarked) [Compound 14]	–	300	–	18
CCC(C)C1C(=O)OC1C(=O)NC1CC1CC(NC(=O)C(C)NC(=O)OC(C)(C)C)C(=O)OCC[Si](C)(C)C (centres unmarked) [Compound 15]	18	200	–	–
CCC(C)C1C(=O)OC1C(=O)NC1CC1CC(NC(=O)C(C)NC(=O)OC(C)(C)C)C(=O)OCCO (centres unmarked) [Compound 16]	–	950	52	–
CCC(C)C1C(=O)OC1C(=O)NC1CC1CC(NC(=O)C(C)NC(=O)OC(C)(C)C)C(=O)OCOC (centres unmarked) [Compound 17]	–	180	19	–
CCC(C)C1C(=O)OC1C(=O)NC1CC1CC(NC(=O)C(C)NC(=O)OC(C)(C)C)C(=O)OCC(=O)c1ccccc1 (centres unmarked) [Compound 18]	–	200	12	–
CCC(C)C1C(=O)OC1C(=O)NC1CC1CC(NC(=O)C(C)NC(=O)OC(C)(C)C)C(=O)NCc1ccccc1 (centres unmarked) [Compound 19]	–	190	6.2	–
CCC(C)C1C(=O)OC1C(=O)NC1CC1CC(NC(=O)C(C)N)C(=O)NCc1ccccc1 (centres unmarked) [Compound 20]	–	57	11	–
CCC(C)C1C(=O)OC1C(=O)NC1CC1CC(NC(=O)C(C)NC(=O)OC(C)(C)C)C(=O)NCc1cccc2ccccc12 (centres unmarked) [Compound 21]	4	520	–	–
CCC(C)C1C(=O)OC1C(=O)NC1CC1CC(NC(=O)C(C)N)C(=O)NCc1cccc2ccccc12 (centres unmarked) [Compound 22]	–	< 41	12	–
CCC(C)C1C(=O)OC1C(=O)NC1CC1CC(NC(=O)C(C)NC(=O)OC(C)(C)C)C(=O)NNc1ccccc1 (centres unmarked) [Compound 23]	17	410	–	–
CCCCNC(=O)C(CC1CC1NC(=O)C1OC(=O)C1C(C)CC)NC(=O)C(C)NC(=O)OC(C)(C)C (centres unmarked) [Compound 24]	15	20	–	–
CCCCNC(=O)C(CC1CC1NC(=O)C1OC(=O)C1C(C)CC)NC(=O)C(C)N (centres unmarked) [Compound 25]	24	59	–	–
CCC(C)C1C(=O)OC1C(=O)NC1CC1CC(NC(=O)C(C)NC(=O)OC(C)(C)C)C(=O)N1CCOCC1 (centres unmarked) [Compound 26]	–	160	13	–
CCC(C)C1C(=O)OC1C(=O)NC1CC1CC(NC(=O)C(C)NC(=O)OC(C)(C)C)C(=O)N[C@@H](C)C(=O)OCc1ccccc1 (some centres unmarked) [Compound 27]	3	–	–	–

SMILES	IC50 [1] [nM]	IC50 [2] [nM]	IC50 [1, 3] [nM]	IC50 [1, 4] [nM]
CCC(C)C1C(=O)OC1C(=O)NC1CC1CC(NC(=O)C(C)NC(=O)OCc1ccccc1)C(=O)OCc1ccccc1 (centres unmarked) [Compound 28]	–	93	5	–
CCC(C)C1C(=O)OC1C(=O)NC1CC1CC(NC(=O)C(C)NC(=O)OCc1ccc(Br)cc1)C(=O)OCc1ccccc1 (centres unmarked) [Compound 29]	–	–	5	–
CCC(C)C1C(=O)OC1C(=O)NC1CC1CC(NC(=O)C(C)NC(=O)NCc1ccccc1)C(=O)OCc1ccccc1 (centres unmarked) [Compound 30]	–	64	4	–
CCC(C)C1C(=O)OC1C(=O)NC1CC1CC(NC(=O)C(C)NC(=O)NC(C)C)C(=O)OCc1ccccc1 (centres unmarked) [Compound 31]	–	113	11	–
CCC(C)C1C(=O)OC1C(=O)NC1CC1CC(NC(=O)C(C)NC(=S)NCc1ccccc1)C(=O)OCc1ccccc1 (centres unmarked) [Compound 32]	–	433	5	–
CCC(C)C1C(=O)OC1C(=O)NC1CC1CC(NC(=O)C(C)NC(=O)c1ccccc1)C(=O)OCc1ccccc1 (centres unmarked) [Compound 33]	–	76	15	–
CCC(C)C1C(=O)OC1C(=O)NC1CC1CC(NC(=O)C(C)NC=O)C(=O)OCc1ccccc1 (centres unmarked) [Compound 34]	–	1200	38	–
CCC(C)C1C(=O)OC1C(=O)NC1CC1CC(NC(=O)C(C)NC(C)=O)C(=O)OCc1ccccc1 (centres unmarked) [Compound 35]	–	93	27	–
CCC(C)C1C(=O)OC1C(=O)NC1CC1CC(NC(=O)C(C)NC(=O)c1cnccn1)C(=O)OCc1ccccc1 (centres unmarked) [Compound 36]	–	62	21	–
CCC(C)C1C(=O)OC1C(=O)NC1CC1CC(NC(=O)C(C)NC(=O)CO[Si](C)(C)C(C)(C)C)C(=O)OCc1ccccc1 (centres unmarked) [Compound 37]	–	5700	6	–
CCC(C)C1C(=O)OC1C(=O)NC1CC1CC(NC(=O)C(C)N1C(=O)c2ccccc2C1=O)C(=O)OCc1ccccc1 (centres unmarked) [Compound 42]	22	–	–	–
CCC(C)C1C(=O)OC1C(=O)NC1CC1CC1NC(=O)C(C)NC1=O (centres unmarked) [Compound 44]	–	–	–	47
CC(C)CC1C(=O)OC1C(=O)NCC(NC(=O)OC(C)(C)C)C(=O)OCc1ccccc1 (centres unmarked) [Compound 47]	–	–	–	150
CC(C)CC1C(=O)OC1C(=O)NCCCCC(NC(=O)OC(C)(C)C)C(=O)OCc1ccccc1 (centres unmarked) [Compound 48]	–	–	50	–
CC(C)CC1C(=O)OC1C(=O)NCCCCC(NC(=O)C(C)NC(=O)OC(C)(C)C)C(=O)OCc1ccccc1 (centres unmarked) [Compound 49]	–	–	30	–
CC(C)CC1C(=O)OC1C(=O)NCCCCCNC(=O)C(C)NC(=O)OC(C)(C)C (centres unmarked) [Compound 53]	–	–	250	–
CC(C)CC1C(=O)OC1C(=O)NCCCCCNC(=O)C1C(OCc2ccccc2)CCN1C(=O)OC(C)(C)C (centres unmarked) [Compound 54]	–	–	47	–
CC(C)CC1C(=O)OC1C(=O)NCCCCCC(=O)OCc1ccccc1 (centres unmarked) [Compound 55]	–	–	77	–
CC(C)CC1C(=O)OC1C(=O)NCCCC(NC(=O)OC(C)(C)C)C(=O)OCc1ccccc1 (centres unmarked) [Compound 58]	–	–	26	–
CC(C)C[C@@H]1C(=O)O[C@H]1C(=O)NCCC[C@H](NC(=O)[C@H](C)NC(=O)OC(C)(C)C)C(=O)OCc1ccccc1 [Compound 59]	–	–	33	–
CC(C)CC1C(=O)OC1C(=O)NCCCC(NC(=O)C(C)N)C(=O)OCc1ccccc1 (centres unmarked) [Compound 60]	–	–	40	–
CC(C)=C[C@@H]1C(=O)O[C@H]1C(=O)NCCCC[C@H](NC(=O)[C@H](C)NC(=O)OC(C)(C)C)C(=O)NCc1cccc2ccccc12 [Compound 74]	–	–	3	–
CC(C)CC1C(=O)OC1C(=O)NCCCCC(NC(=O)C(C)NC(=O)OC(C)(C)C)C(=O)NCc1cccc2ccccc12 (centres unmarked) [Compound 75]	–	–	1	–
COc1ccc(CC(NC(=O)OC(C)(C)C)C(=O)OCc2ccccc2)cc1NC(=O)C1OC(=O)C1CC(C)C (centres unmarked) [Compound 81]	–	–	–	500
CC(C)C[C@@H]1C(=O)O[C@H]1C(=O)Nc1cc(C[C@H](NC(=O)OC(C)(C)C)C(=O)OCc2ccccc2)ccc1OCc1ccccc1 [Compound 82]	–	–	100	–
